In patent US8409595B2, “Method for decreasing sebum production” (Medicis Pharmaceutical Corporation, priority 2003, dated 2013):

Tests used:
[1] = test system: sebum secretion; details: in vivo; cited from earlier work
[2] = test system: sebaceous glands of Syrian hamster ears; experiment: Syrian hamster ear model of sebum secretion, HPLC of cholesterol ester and wax ester; format: in vivo; details: topical 1 w/v %, 4 weeks; for % Reduction in CE, change vs. relevant vehicle control: cholesterol ester; for % Reduction in CE, change vs. relevant vehicle control / % Reduction in WE, change vs. relevant vehicle control: twice daily, five days a week, right ear, negative = increase; for Sum CE + WE, change vs. relevant vehicle control: summation of % reduction in CE and in WE; for effect on CE and WE (sebum) secretion, in words: compared to the control; for % Reduction in WE, change vs. relevant vehicle control: wax ester
Protocol: Luderschmidt et al describes an animal model for testing whether compounds are capable of modulating sebum secretion. Arch. Derm. Res. 258, 185-191 (1977). This model uses Syrian hamsters, whose ears contain sebaceous glands. Compounds can be administered to these animals to determine if a test agent is capable of modulating sebum production
Testing for sebum inhibition was carried out in the following manner. Male Syrian hamsters aged 9 to 10 weeks were introduced into the laboratory environment and acclimated for 2 weeks prior to use in the study. Each group consisted of 5 animals and were run in parallel with vehicle and positive controls. Prior to administration, 10 mg of each compound was dissolved in 1 mL of Universal solvent (ethanol/propylene glycol (70/30% v/v) to achieve a final concentration of 1 w/v %.
Animals were dosed topically twice daily, five days a week, for 4 weeks. Each dose consisted of 25 micro liters of vehicle control or drug. The dose was applied to the ventral surfaces of both the right and left ears. All animals were sacrificed approximately 18-24 hours after the final dose. The right ears were collected from each animal and used for sebum analysis.
The ears were prepped for HPLC analysis in the following manner. One 8 mm distal biopsy punch was taken, just above the anatomical “V” mark in the ear to normalize the sample area. The punch was pulled apart. The ventral biopsy surface (the area where the topical dose was directly applied to the sebaceous glands) was retained for testing and the dorsal surface of the biopsy punch was discarded.
Tissue samples were blown with N2 gas and stored at −80° C. under nitrogen until HPLC analysis. In addition to ear samples, an aliquot of each drug and vehicle (at least 250 ul) was also stored at −80° C. for inclusion in the HPLC analysis.
HPLC analysis was carried out on an extract of the tissue sample. Tissue samples were contacted with 3 ml of solvent (a 4:1 admixture of 2,2,4-trimethylpentane and isopropyl alcohol). The mixture was shaken for 15 minutes and stored overnight at room temperature, protected from light. The next morning 1 milliliter of water was added to the sample and shaken for 15 minutes. The sample was then centrifuged at approximately 1500 rpm for 15 minutes. Two ml of the organic phase (top layer) was transferred to a glass vial, dried at 37° C., under nitrogen, for approximately 1 hour, and then lyophilized for approximately 48 hours. The samples were then removed from the lyophilizer and each vial was reconstituted with 600 μl of solvent A (trimethylpentane/tetrahydrofuran (99:1). The samples were then recapped and vortexed for 5 minutes.
200 μl of each sample was then transferred to a pre-labeled 200 μl HPLC vial with 200 μL glass inserts. The HPLC vials were placed in the autosampler tray for the Agilent 1100 series HPLC unit. The Agilent 1100 HPLC system consisted of a thermostated autosampler, a quarternary pump, a column heater, and an A/D interface module. All components were controlled by Agilent ChemStation software. A Waters Spherisorb S3W 4.6×100 mm analytical column was maintained at 30° C. by the Agilent column heater unit. The HPLC autosampler was programmed to maintain the sample temperature at 20° C. throughout the run.
10 uL of each sample was injected in triplicate into the column. Two solvents were used for the solvent gradient. Solvent A was an admixture of trimethylpentane and tetrahydrofuran (99:1). Solvent B was ethylacetate. The gradient utilized is described in the table below: […]
The Sedex 75 Evaporative Light Scattering Detector (ELSD) was operated at 45° C. with a gain of 5, and N2 pressure maintained at 3.1 bar. Analog signal obtained by the instrument was sent to the Agilent A/D interface module where it was converted to a digital output. The conversion was based on a 10000 mAU/volt set point and the data rate was set at 10 Hz (0.03 min). […]

SMILES	reduction of sebum secretion [1]	% Reduction in CE, change vs. relevant vehicle control [2]	Sum CE + WE, change vs. relevant vehicle control [2]	effect on CE and WE (sebum) secretion, in words [2]	% Reduction in WE, change vs. relevant vehicle control [2]
CC1=C(/C=C/C(C)=C/C=C/C(C)=C\C(=O)O)C(C)(C)CCC1 [Accutane, isotretinoin]	up to 90%	–	–	–	–
CSc1ccc(CN(C(=O)CC(=O)Nc2c(C(C)C)cccc2C(C)C)C(C)C)cc1 [Compound 2]	–	65%	96%	comparable results	31%
COc1ccc(CN(C(=O)CC(=O)Nc2c(C(C)C)cccc2C(C)C)c2ccccn2)cc1 [Compound 3]	–	51%	84%	comparable results	33%
CC(C)c1cccc(C(C)C)c1NC(=O)CC(=O)N(CCN(C)C)Cc1ccccc1 [Compound 4]	–	−1%	−19%	–	−18%
COc1ccc(CN(C(=O)CC(=O)Nc2c(C(C)C)cccc2C(C)C)c2ncccn2)cc1 [Compound 5]	–	32%	28%	–	−4%
CC(C)c1cccc(C(C)C)c1NC(=O)CC(=O)N(CCC#N)Cc1ccccc1 [Compound 6]	–	23%	22%	–	−1%
CCOC(=O)CN(C(=O)CC(=O)Nc1c(C(C)C)cccc1C(C)C)c1ccccc1 [Compound 7]	–	−67%	−151%	–	−84%
CC(C)c1cccc(C(C)C)c1NC(=O)CC(=O)N(c1ccccc1)C(C)C [Compound 8]	–	−27%	−97%	–	−70%
CC(C)c1cccc(C(C)C)c1NC(=O)CC(=O)CC(c1ccccc1)c1ccccc1 [Compound 9]	–	7%	9%	–	2%
CCCCCCCCCCCCn1nnc(C(C(=O)Nc2c(C(C)C)cccc2C(C)C)c2ccccc2)n1 (stereo not drawn) [Compound 10]	–	−105%	−252%	–	−147%
CCCCCCCCCCCCn1nnc(C(C(=O)Nc2c(OC)cc(OC)cc2OC)c2ccccc2)n1 (stereo not drawn) [Compound 11]	–	−5%	−11%	–	−6%
CCCCCCCCCCCCOP(=O)(CC(=O)Nc1c(C(C)C)cccc1C(C)C)c1ccccc1 (stereo not drawn) [Compound 12]	–	48%	92%	–	44%
CC(C)c1cccc(C(C)C)c1NC(=O)NCC1(c2ccccc2)CCOCC1 [Compound 13]	–	−7%	−14%	–	−7%
CCCCCCCCCCCCCC(=O)CC(=O)Nc1c(C(C)C)cccc1C(C)C [Compound 14]	–	−8%	−23%	–	−15%
CCCCCCCC1CCC(C(=O)Nc2c(C(C)C)cccc2C(C)C)C(=O)O1 (stereo not drawn) [Compound 15]	–	24%	38%	–	14%
CC(C)c1cccc(C(C)C)c1NC(=O)NCC1(c2ccc(CO)cc2)CCCC1 [Compound 16]	–	−1%	−1%	–	0%

SMILES	reduction of sebum secretion [1]	% Reduction in CE, change vs. relevant vehicle control [2]	Sum CE + WE, change vs. relevant vehicle control [2]	effect on CE and WE (sebum) secretion, in words [2]	% Reduction in WE, change vs. relevant vehicle control [2]
CC(C)c1cccc(C(C)C)c1NC(=O)NCC1(c2ccccn2)CCCC1 [Compound 17]	–	−56%	−120%	–	−64%
CCCCCCCCCCCCn1nnc(CC(=O)Nc2c(C)nn(C)c2C)n1 [Compound 18]	–	−23%	−72%	–	−49%
CCCCCCCCCCCCn1nnc(CNC(=O)Nc2c(C(C)C)cccc2C(C)C)n1 [Compound 19]	–	−6%	−5%	–	1%
CC(C)c1cccc(C(C)C)c1NC(=O)NCC1(c2ccco2)CCC1 [Compound 20]	–	4%	3%	–	−1%
COc1ccccc1CN[C@@H](CNC(=O)Nc1c(C(C)C)cccc1C(C)C)c1ccccc1 [Compound 21]	–	4%	7%	–	3%
CCCCCCCN(CCCCCSc1nc(-c2ccccc2)c(-c2ccccc2)[nH]1)C(=O)Nc1ccc(F)cc1F [Compound 22]	–	20%	24%	–	4%
CC(C)c1cccc(C(C)C)c1NC(=O)NCC1(c2cccc(CN(CCO)CCO)c2)CCCC1 [Compound 23]	–	4%	−80%	–	−84%
CC(C)c1cccc(C(C)C)c1NC(=O)NCC1(c2cccc(CN3CCOCC3)c2)CCCC1 [Compound 24]	–	20%	21%	–	1%
COc1cc(OC)cc(C(NCC(=O)Nc2c(C(C)C)cccc2C(C)C)c2ccccc2)c1 (stereo not drawn) [Compound 25]	–	10%	7%	–	−3%
CC(C)c1cccc(C(C)C)c1NC(=O)Nc1nnn(CCCCCCCCCCCO)n1 [Compound 26]	–	28%	37%	–	9%
CC(C)c1cccc(C(C)C)c1NC(=O)NCC(C)c1ccccc1 (stereo not drawn) [Compound 27]	–	−17%	−40%	–	−23%
CC(C)c1cccc(C(C)C)c1NC(=O)NCC1(c2ccccc2)CC1 [Compound 28]	–	0%	−8%	–	−8%
CC(=O)OC(C(=O)N(CC(=O)Nc1c(C(C)C)cccc1C(C)C)Cc1ccccc1)c1ccccc1 (stereo not drawn) [Compound 29]	–	19%	30%	–	11%
COc1cccc2c1CCC(NC(=O)Nc1c(C(C)C)cccc1C(C)C)C2 (stereo not drawn) [Compound 30]	–	−10%	−44%	–	−34%
CC(C)c1cccc(C(C)C)c1NC(=O)NCCc1c[nH]c2ccccc12 [Compound 31]	–	9%	18%	–	9%
